The text below walks through data of US11207285B2, “Diabetes treatment regimens using alpha, alpha-substituted long-chain amphipathic carboxylates” (SYNDROMEX LTD., priority 2016, dated 2021).

Molecules are shown by their SMILES.

In data set [1] the target is mammalian target of rapamycin (mTORC1) (Homo sapiens, UniProt P42345). Description: modulation of mTORC1 activity.
For data set [2], the system named is mitochondrial permeability transition pore (PTP). Description: gating of mitochondrial PTP. The settings on record: mild decoupling of mitochondrial oxidative phosphorylation.
Data set [3] has as its system animal models for T2D (e.g., db/db rats, rodents maintained on high-fat diet). Description: insulin sensitization, glucose lowering and energy expenditure in animal models for T2D. The format is in vivo.
The test system of data set [4] is animal models for T2D (e.g., rodents maintained on high-fat diet). The data set is described as above. The data set is classed as in vivo.
The test system of the next data set is HepG2 human liver cells. The experiment in a line: inhibition of glucose production in HepG2 cells. The format is cell-based. The protocol: (§1) The compound 2,2,15,15-tetramethylhexadecane-1,16-dioic acid (also designated M16αα), and also the compounds […] (M18αα) and 2,2,19,19-tetramethyl-[…]-1,20-dioic acid (M20αα), were tested for their effect on glucose uptake and production, and the expression of glucose- and lipid-related genes in in vitro models. […] Inhibition of glucose production was tested in HepG2 human liver cells.

Data set [5] relates to cultured human HepG2 liver cells. Description: inhibition of lipoprotein production in HepG2 cells. The format is cell-based.
Data set [6] relates to genes that control liver gluconeogenesis and lipid synthesis. The experiment in a line: expression of glucose- and lipid-related genes in in vitro models. The format is cell-based. The protocol:
as §1

Data set [7] deals with Type 2 Diabetes Mellitus (T2D) patients. The experiment in a line: 4-week M16αα study in T2D patients, safety and tolerability. The settings on record: 40 mg/day oral, 28 days. The data set is classed as in vivo, human. The protocol: T2D patients, non-treated or treated with SoC antidiabetic drugs as outlined below, were screened for eligibility (inclusion/exclusion according to criteria detailed below), followed by being randomly allocated to receive once daily either add-on M16αα (40 mg M16αα plus 130 mg microcrystalline cellulose in gelatin capsules) or add-on placebo (130 mg microcrystalline cellulose in gelatin capsules), in addition to the SoC anti-diabetic treatment they have been receiving regularly. One patient was not under SoC anti-diabetic drug treatment. Sixteen (16) patients were randomized to M16αα treatment and 3 patients were randomized to placebo treatment. Patients randomized to M16αα treatment were dosed for 28 days with add-on M16αα in double-blinded manner, followed by 4-week recovery period using add-on placebo in a single-blinded manner. Patients randomized to placebo treatment were dosed for 28 days with add-on placebo in double-blinded manner.
The primary safety endpoint was the frequency, severity, and duration of adverse events (AEs), including clinically significant laboratory abnormalities after administration of M16αα.
Safety was evaluated on the basis of the following assessments: Adverse events (AEs)—continuous (starting from informed consent signature until end of study); vital signs; 12-lead ECG; physical examination; safety laboratory evaluations (blood and urine). […]

In the case of `CC(C)(CCCCCCCCCCCCC(C)(C)C(=O)O)C(=O)O` [M16αα, 2,2,15,15-tetramethyl-hexadecane-1,16-dioic acid], the mTORC1 activity entry in data set [1] is “suppressing”. Further, in data set [2], the “gating of mitochondrial PTP” value is recorded as “induces low-conductance gating of mitochondrial PTP”. In addition, in data set [3], the “insulin-sensitizing and glucose-lowering efficacy” value is “potent insulin-sensitizing and glucose-lowering efficacy”. Also, the energy expenditure result in data set [4] is given as “increased energy expenditure”. Also, the hepatic glucose production result in the data set on HepG2 human liver cells is listed as “significant or full inhibition”. The lipoprotein production entry in data set [5] is recorded as “significant or full inhibition”. Further, the “expression of genes that control liver gluconeogenesis and lipid synthesis” value in data set [6] was “effective in inhibiting”. In data set [7], the “serious adverse events (SAE)” value is listed as “No serious adverse events (SAE) were recorded”; the tolerability and safety result is “well tolerated and safe”.
